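Exposure lasted 48 hours, with cells grown in 96-well plates and compounds tested at five concentrations. TGI is the concentration that stops growth completely.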
How the values were obtained:
Experiment in all cases: inhibition of tumour cell growth, NCI panel, 48 h
786-0 renal = test system: 786-0 renal
A498 renal = test system: A498 renal
A549 NSCLC = test system: A549 NSCLC
ACHN renal = test system: ACHN renal
BT-549 breast = test system: BT-549 breast
CAKI-1 renal = test system: CAKI-1 renal
CCRF-CEM leukemia = test system: CCRF-CEM leukemia
COLO 205 colon = test system: COLO 205 colon
DU-145 prostate = test system: DU-145 prostate
EKVX NSCLC = test system: EKVX NSCLC
HCC-2998 colon = test system: HCC-2998 colon
HCT-116 colon = test system: HCT-116 colon
HCT-15 colon = test system: HCT-15 colon
HL-60(TB) leukemia = test system: HL-60(TB) leukemia
HOP-62 NSCLC = test system: HOP-62 NSCLC
HOP-92 NSCLC = test system: HOP-92 NSCLC
HS 578T breast = test system: HS 578T breast
HT29 colon = test system: HT29 colon
IGROV1 ovarian = test system: IGROV1 ovarian
K-562 leukemia = test system: K-562 leukemia
KM12 colon = test system: KM12 colon
LOX IMVI melanoma = test system: LOX IMVI melanoma
M14 melanoma = test system: M14 melanoma
MALME-3M melanoma = test system: MALME-3M melanoma
MCF7 breast = test system: MCF7 breast
MDA-MB-231 breast = test system: MDA-MB-231 breast
MDA-MB-435 = test system: MDA-MB-435
MDA-N = test system: MDA-N
MOLT-4 leukemia = test system: MOLT-4 leukemia
NCI-H226 lung = test system: NCI-H226 lung
NCI-H23 lung = test system: NCI-H23 lung
NCI-H460 lung = test system: NCI-H460 lung
NCI-H522 lung = test system: NCI-H522 lung
NCI/ADR-RES ovarian = test system: NCI/ADR-RES ovarian
OVCAR-3 ovarian = test system: OVCAR-3 ovarian
OVCAR-4 ovarian = test system: OVCAR-4 ovarian
OVCAR-5 ovarian = test system: OVCAR-5 ovarian
OVCAR-8 ovarian = test system: OVCAR-8 ovarian
PC-3 prostate = test system: PC-3 prostate
RPMI-8226 leukemia = test system: RPMI-8226 leukemia
RXF 393 renal = test system: RXF 393 renal
SF-268 CNS = test system: SF-268 CNS
SF-295 CNS = test system: SF-295 CNS
SF-539 CNS = test system: SF-539 CNS
SK-MEL-2 melanoma = test system: SK-MEL-2 melanoma
SK-MEL-28 melanoma = test system: SK-MEL-28 melanoma
SK-MEL-5 melanoma = test system: SK-MEL-5 melanoma
SK-OV-3 ovarian = test system: SK-OV-3 ovarian
SN12C renal = test system: SN12C renal
SNB-19 CNS = test system: SNB-19 CNS
SNB-75 CNS = test system: SNB-75 CNS
SR leukemia = test system: SR leukemia
SW-620 colon = test system: SW-620 colon
T-47D breast = test system: T-47D breast
TK-10 renal = test system: TK-10 renal
U251 CNS = test system: U251 CNS
UACC-257 melanoma = test system: UACC-257 melanoma
UACC-62 melanoma = test system: UACC-62 melanoma
UO-31 renal = test system: UO-31 renal
DLD-1 colon = test system: DLD-1 colon
DMS 114 small cell lung = test system: DMS 114 small cell lung
DMS 273 small cell lung = test system: DMS 273 small cell lung
LXFL 529 NSCLC = test system: LXFL 529 NSCLC
M19-MEL melanoma = test system: M19-MEL melanoma
SNB-78 CNS = test system: SNB-78 CNS
XF 498 CNS = test system: XF 498 CNS

Measured: TGI

COc1cc2c(NCCCCCO)ncnc2c(OC)c1OC
not listed: DLD-1 colon | DMS 114 small cell lung | DMS 273 small cell lung | LXFL 529 NSCLC | M19-MEL melanoma | SNB-78 CNS | XF 498 CNS
> 100 µM: all other assays above

Cc1[nH]c(=O)nc(N/N=C/c2ccc(O)cc2)c1C(=O)Nc1ccc(O)cc1
not listed: A549 NSCLC | ACHN renal | BT-549 breast | DU-145 prostate | EKVX NSCLC | HCT-15 colon | HS 578T breast | HT29 colon | KM12 colon | LOX IMVI melanoma | MCF7 breast | MDA-MB-231 breast | MDA-MB-435 | MDA-N | NCI/ADR-RES ovarian | OVCAR-3 ovarian | OVCAR-5 ovarian | OVCAR-8 ovarian | PC-3 prostate | RXF 393 renal | SF-295 CNS | SK-MEL-5 melanoma | SNB-19 CNS | SW-620 colon | T-47D breast | TK-10 renal | U251 CNS | UACC-257 melanoma
> 100 µM: all other assays above
